# Measured values: PubChem BioAssay AID1963850 (Molecular Pharmacology Branch, DTP, NCI, 2024)
# “And” between values parts separate entries of the source, which are not always exact repeats. Identical values can stand only once.
# Tested on: 192522-019-R-J2-PDC complex tumor spheroid viability
# Test: Anticancer human tumor 192522-019-R-J2-PDC patient-derived colon adenocarcinoma cell line growth inhibition [POLQ]
# Conditions: for viability, T/C: stronger effect = lower value
# Method: Multicellular complex tumor spheroid response to Polymerase (POL) inhibitors (novobiocin, ART-558, RP6685) in combination with a variety of drugs and investigational agents in selected tumor cell lines
# The POL inhibitors (novobiocin, ART-558, and RP6685) were evaluated both individually and in combination with standard of care and investigational anticancer small molecules within a complex spheroid model of solid tumors. . Complex spheroids include a stromal component modeled by human endothelial cells (HUVEC) and fibroblasts modeled by human mesenchymal stem cells (MSCs). The concentration ranges selected for each drug and investigational agent were based upon clinically achievable concentrations if the clinical Cmax of the agent was known.
# Compounds. The drugs and investigational agents: novobiocin (NSC847541), ART-558 (NSC835418), RP-6685 (NSC848927), peposertib (NSC802822), ceralasertib (NSC780249), elimusertib (NSC800525), camonsertib (NSC841442), AZD-1390 (NSC803789), olaparib (NSC753686), talazoparib (NSC767125), rucaparib (NSC756644), sotorasib (NSC818433), MRTX-1133 (NSC836407), SN-38 (NSC673596), topotecan (NSC609699), epotoside (NSC141540), doxorubicin (NSC123127), gemcitabine (NSC613327), 5-fluorouracil (NSC19893), paclitaxel (NSC125973), vemurafenib (NSC761431), MSA-2 (NSC828583), SN-011 (NSC837082), adavosertib (NSC754352), prexasertib (NSC758257), carboplatin (NSC241240) and oxaliplatin (NSC266046), were obtained from the National Cancer Institute (NCI) Developmental Therapeutics Program Chemical Repository (21). The FDA-approved anticancer drug set is available from the Developmental Therapeutics Program at https://dtp.cancer.gov/organization/dscb/obtaining/. […] The stock solutions were prepared in dimethyl sulfoxide (DMSO, Sigma-Aldrich, St. Louis, MO, cat. D2650), except for the platinum compounds which were prepared in saline (Quality Biological, Gaithersburg, MD, cat. 114-055-101), at 800-fold the tested concentration and stored at -70 degrees C prior to their use. All drugs and investigational agents were tested over a range starting from a high concentration at or near the clinical Cmax and decreasing in half-log increments. If the clinical Cmax for an agent had not been determined, the highest concentration tested was 10 microM, except for SN-38, which was tested at a high concentration of 1 microM.
# Cell Culture. All cells were maintained in an incubator at 37 degrees C and 5% CO2 with 95% humidity. The PDC lines were cultured according to standard operating procedures established by the NCI PDMR (https://pdmr.cancer.gov). Table 3 of the manuscript, lists the cell lines along with the number of the three cell types plated to form the mct-spheroids and media for tumor cell growth. After thawing, all PDC lines, except 997537-175-T-J1-PDC and 415267-285-R-J2-PDC, were cultured in Matrigel-coated flasks prepared with a working solution of 1X Ham's F-12 nutrient mix, without supplementation (Thermo Fisher Scientific, cat. 11765054), 100 U/mL penicillin-streptomycin (Thermo Fisher Scientific, cat. 15140122), and 2.5% Matrigel (Corning Inc., Corning, NY, cat. 354248) for the first three passages. The two PDC lines 997537-175-T-J1-PDC and 415267-285-R-J2-PDC were cultured on uncoated flasks. The 857933-349-R-J2-PDC line was cultured in 6C/Colon 1B media containing advanced DMEM/F-12 (Thermo Fisher Scientific, cat. 12634028), 10 mM HEPES (Thermo Fisher Scientific, cat. 15630080), 1X GlutaMAX supplement (Thermo Fisher Scientific, cat. 35050061), 0.1 mg/mL primocin (InvivoGen, San Diego, CA, cat. ant-pm-2), 10% defined fetal bovine serum, heat inactivated (HyClone Laboratories Inc., Logan, UT, cat. SH30070.03HI), 50% L-WRN conditioned media (ATCC, cat. CRL-3276), 1.25 mM N-Acetyl-L-cysteine (Sigma-Aldrich, cat. A9165), 10 mM nicotinamide (Sigma-Aldrich, cat. N0636), 1X B-27 supplement (Thermo Fisher Scientific, cat. 17504044), 1X N-2 supplement (Thermo Fisher Scientific, cat. […]
# [1] = curve of first compound, second compound 0.0316 µM
# [2] = curve of first compound, second compound 0.1 µM
# [3] = curve of first compound, second compound 0.316 µM
# [4] = curve of first compound, second compound 1 µM
# [5] = curve of first compound, second compound 3.16 µM
# [6] = curve of first compound, second compound 10 µM
# [7] = second compound 0.0316 µM, first compound 0.0316 µM
# [8] = second compound 0.0316 µM, first compound 0.1 µM
# [9] = second compound 0.0316 µM, first compound 0.316 µM
# [10] = second compound 0.0316 µM, first compound 1 µM
# [11] = second compound 0.0316 µM, first compound 3.16 µM
# [12] = second compound 0.0316 µM, first compound 10 µM
# [13] = second compound 0.1 µM, first compound 0.0316 µM
# [14] = second compound 0.1 µM, first compound 0.1 µM
# [15] = second compound 0.1 µM, first compound 0.316 µM
# [16] = second compound 0.1 µM, first compound 1 µM
# [17] = second compound 0.1 µM, first compound 3.16 µM
# [18] = second compound 0.1 µM, first compound 10 µM
# [19] = second compound 0.316 µM, first compound 0.0316 µM
# [20] = second compound 0.316 µM, first compound 0.1 µM
# [21] = second compound 0.316 µM, first compound 0.316 µM
# [22] = second compound 0.316 µM, first compound 1 µM
# [23] = second compound 0.316 µM, first compound 3.16 µM
# [24] = second compound 0.316 µM, first compound 10 µM
# [25] = second compound 1 µM, first compound 0.0316 µM
# [26] = second compound 1 µM, first compound 0.1 µM
# [27] = second compound 1 µM, first compound 0.316 µM
# [28] = second compound 1 µM, first compound 1 µM
# [29] = second compound 1 µM, first compound 3.16 µM
# [30] = second compound 1 µM, first compound 10 µM
# [31] = second compound 3.16 µM, first compound 0.0316 µM
# [32] = second compound 3.16 µM, first compound 0.1 µM
# [33] = second compound 3.16 µM, first compound 0.316 µM
# [34] = second compound 3.16 µM, first compound 1 µM
# [35] = second compound 3.16 µM, first compound 3.16 µM
# [36] = second compound 3.16 µM, first compound 10 µM
# [37] = second compound 10 µM, first compound 0.0316 µM
# [38] = second compound 10 µM, first compound 0.1 µM
# [39] = second compound 10 µM, first compound 0.316 µM
# [40] = second compound 10 µM, first compound 1 µM
# [41] = second compound 10 µM, first compound 3.16 µM
# [42] = second compound 10 µM, first compound 10 µM
# 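Note: spheroids exposed to drugs for seven days before reading.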
# 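Throughout, for viability, T/C: 100% = DMSO vehicle control viability in luminescence.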
smiles,measurement,setting,value
CCc1cc2c(N3CCc4c(cc(Cn5ccnc5)cc4-c4cn(C)nc4C(F)(F)F)C3=O)ccnc2c(OC)n1 + Cc1cccc(N(C)C(=O)C2C(O)CCN2c2nc(C)cc(C(F)(F)F)c2C#N)c1,IC50,[1],> 10 µM
same,IC50,[2],> 10 µM
same,IC50,[3],> 10 µM
same,IC50,[4],> 10 µM
same,IC50,[5],> 10 µM
same,IC50,[6],> 10 µM
same,"viability, T/C",[7],107%
same,"viability, T/C",[8],93.3%
same,"viability, T/C",[9],93.9%
same,"viability, T/C",[10],78.7%
same,"viability, T/C",[11],82.3%
same,"viability, T/C",[12],72.7%
same,"viability, T/C",[13],99.6%
same,"viability, T/C",[14],90.7%
same,"viability, T/C",[15],85.4%
same,"viability, T/C",[16],93%
same,"viability, T/C",[17],70.7%
same,"viability, T/C",[18],63.7%
same,"viability, T/C",[19],108%
same,"viability, T/C",[20],92.8%
same,"viability, T/C",[21],89.1%
same,"viability, T/C",[22],88.5%
same,"viability, T/C",[23],85.2%
same,"viability, T/C",[24],72.9%
same,"viability, T/C",[25],108%
same,"viability, T/C",[26],95.9%
same,"viability, T/C",[27],94.6%
same,"viability, T/C",[28],90.1%
same,"viability, T/C",[29],90.2%
same,"viability, T/C",[30],85.3%
same,"viability, T/C",[31],105%
same,"viability, T/C",[32],98%
same,"viability, T/C",[33],96.8%
same,"viability, T/C",[34],91.2%
same,"viability, T/C",[35],91.3%
same,"viability, T/C",[36],82.3%
same,"viability, T/C",[37],104%
same,"viability, T/C",[38],98.9%
same,"viability, T/C",[39],99.2%
same,"viability, T/C",[40],92.4%
same,"viability, T/C",[41],88%
same,"viability, T/C",[42],88.7%
Nc1ccn(C2OC(CO)C(O)C2(F)F)c(=O)n1 (centres undefined) + Cc1cccc(N(C)C(=O)C2C(O)CCN2c2nc(C)cc(C(F)(F)F)c2C#N)c1,IC50,[1],> 10 µM
same,IC50,[2],> 10 µM
same,IC50,[3],> 10 µM
same,IC50,[4],> 10 µM
same,IC50,[5],> 10 µM
same,IC50,[6],> 10 µM
same,"viability, T/C",[7],95.9%
same,"viability, T/C",[8],81.6%
same,"viability, T/C",[9],81.8%
same,"viability, T/C",[10],76.2%
same,"viability, T/C",[11],70.3%
same,"viability, T/C",[12],57.2%
same,"viability, T/C",[13],95.9%
same,"viability, T/C",[14],95.7%
same,"viability, T/C",[15],80.6%
same,"viability, T/C",[16],76.5%
same,"viability, T/C",[17],66.6%
same,"viability, T/C",[18],55.5%
same,"viability, T/C",[19],108%
same,"viability, T/C",[20],95.3%
same,"viability, T/C",[21],83.2%
same,"viability, T/C",[22],76.3%
same,"viability, T/C",[23],65.8%
same,"viability, T/C",[24],57.6%
same,"viability, T/C",[25],104%
same,"viability, T/C",[26],90%
same,"viability, T/C",[27],80.6%
same,"viability, T/C",[28],79.9%
same,"viability, T/C",[29],72.3%
same,"viability, T/C",[30],56.5%
same,"viability, T/C",[31],105%
same,"viability, T/C",[32],98.6%
same,"viability, T/C",[33],88.6%
same,"viability, T/C",[34],74%
same,"viability, T/C",[35],77%
same,"viability, T/C",[36],59.7%
same,"viability, T/C",[37],108%
same,"viability, T/C",[38],83.4%
same,"viability, T/C",[39],80.5%
same,"viability, T/C",[40],74.3%
same,"viability, T/C",[41],76.5%
same,"viability, T/C",[42],62.3%
COc1cc2cc(C(=O)CCC(=O)O)sc2cc1OC,"viability, T/C",compound 0.0316 µM,103% and 106% and 111%
same,"viability, T/C",compound 0.1 µM,102% and 92.6% and 99.8%
same,"viability, T/C",compound 0.316 µM,90.1% and 107% and 96.3%
same,"viability, T/C",compound 1 µM,96.8% and 99.9% and 102%
same,"viability, T/C",compound 3.16 µM,115% and 103% and 100%
same,"viability, T/C",compound 10 µM,100% and 98.1% and 91.6%
same,IC50,curve of compound,> 10 µM
Cc1cccc(N(C)C(=O)C2C(O)CCN2c2nc(C)cc(C(F)(F)F)c2C#N)c1 (centres undefined),"viability, T/C",compound 0.0316 µM,107% [middle of 13 runs]
same,"viability, T/C",compound 0.1 µM,108% [middle of 13 runs]
same,"viability, T/C",compound 0.316 µM,110% [middle of 13 runs]
same,"viability, T/C",compound 1 µM,106% [middle of 13 runs]
same,"viability, T/C",compound 3.16 µM,106% [middle of 13 runs]
same,"viability, T/C",compound 10 µM,110% [middle of 13 runs]
same,IC50,"compound alone, run of 10/31/2023",> 10 µM
same,IC50,"compound alone, run of 11/06/2023",> 10 µM
